Like-named read-outs stand apart in the source and are kept apart here. Positions of bridges follow the written chain, without caps; N, C: chain ends. Residues, ends and D or L forms follow the SMILES beside them. No end group written: not given here.
Experiments:
IR [1] = biological target: T1, IR (Homo sapiens, UniProt P06213); assay: IR-IC50 Biacore; design: replacing the transmembrane domain and the intracellular domain of IR with constant domains from immunoglobulin Fc or λ subunits; made in house; host or cells: human embryonic kidney 293 cells (Bass et al.)
Target sequence in this assay (P06213 28-758 limits assumed): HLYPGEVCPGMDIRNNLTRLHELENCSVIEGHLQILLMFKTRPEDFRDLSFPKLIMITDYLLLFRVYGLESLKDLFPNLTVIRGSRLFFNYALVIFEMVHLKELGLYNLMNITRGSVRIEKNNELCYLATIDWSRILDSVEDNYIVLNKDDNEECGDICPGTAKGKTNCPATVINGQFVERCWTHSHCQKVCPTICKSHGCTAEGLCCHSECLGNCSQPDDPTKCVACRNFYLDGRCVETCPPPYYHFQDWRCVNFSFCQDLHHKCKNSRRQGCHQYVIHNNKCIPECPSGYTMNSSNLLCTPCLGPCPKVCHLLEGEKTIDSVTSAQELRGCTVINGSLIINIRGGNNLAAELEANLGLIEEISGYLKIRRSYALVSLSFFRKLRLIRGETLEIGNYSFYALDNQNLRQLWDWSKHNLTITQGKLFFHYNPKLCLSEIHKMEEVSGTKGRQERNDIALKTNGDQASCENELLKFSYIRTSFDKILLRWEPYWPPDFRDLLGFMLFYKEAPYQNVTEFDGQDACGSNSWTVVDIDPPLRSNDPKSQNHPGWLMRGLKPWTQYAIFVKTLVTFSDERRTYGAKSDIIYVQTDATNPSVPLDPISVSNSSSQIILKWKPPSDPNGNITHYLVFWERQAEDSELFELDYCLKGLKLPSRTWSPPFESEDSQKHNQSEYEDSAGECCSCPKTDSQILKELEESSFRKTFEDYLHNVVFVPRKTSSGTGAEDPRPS
Target sequence in this assay (P06213 763-1382 limits assumed): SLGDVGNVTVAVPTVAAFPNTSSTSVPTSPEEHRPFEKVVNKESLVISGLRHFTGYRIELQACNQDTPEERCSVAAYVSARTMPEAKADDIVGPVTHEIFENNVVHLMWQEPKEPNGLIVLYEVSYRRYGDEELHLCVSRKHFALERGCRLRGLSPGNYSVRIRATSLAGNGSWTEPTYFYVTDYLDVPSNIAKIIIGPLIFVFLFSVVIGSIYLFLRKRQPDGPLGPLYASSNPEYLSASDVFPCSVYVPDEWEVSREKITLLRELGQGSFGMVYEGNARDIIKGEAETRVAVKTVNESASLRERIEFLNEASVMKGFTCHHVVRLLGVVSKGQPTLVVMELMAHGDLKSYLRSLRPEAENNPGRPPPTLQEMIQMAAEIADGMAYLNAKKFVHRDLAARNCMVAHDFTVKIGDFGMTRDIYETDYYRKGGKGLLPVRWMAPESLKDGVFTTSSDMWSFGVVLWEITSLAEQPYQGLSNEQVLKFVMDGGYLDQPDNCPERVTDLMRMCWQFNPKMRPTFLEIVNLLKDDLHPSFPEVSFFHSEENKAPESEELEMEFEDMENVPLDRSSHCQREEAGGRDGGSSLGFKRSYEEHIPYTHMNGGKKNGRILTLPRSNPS

MCF-7 cells = assay: MCF-7 cell proliferation assay, IGF-1R agonist format; format: cell-based, human; conditions: for MCF-7 Agonist: MCF-7 cell proliferation, agonist effect
Excerpt: ; FIGS. 65A-65F), and were used for subsequent experiments.

MiaPaCa cells = assay: MiaPaCa cell proliferation assay, IGF-1R agonist format; format: cell-based, human; conditions: for MiaPaCa Agonist: MiaPaCa cell proliferation, agonist effect
[2] = biological target: T2, human insulin receptor (HIR) (Homo sapiens, UniProt P06213); assay: Insulin receptor binding, competition with 125I-labeled insulin (HIR Kd)
T2 construct: made in house
T2 sequence (P06213 28-758 limits assumed): as the sequence (P06213 28-758 limits assumed) above
T2 sequence (P06213 763-1382 limits assumed): as the sequence (P06213 763-1382 limits assumed) above

[3] = biological target: T3, soluble human insulin receptor-immunoglobulin heavy chain chimera (sIR-Fc) (Homo sapiens, UniProt P06213); assay: Fluorescence polarization, competition with FITC-RP9 for sIR-Fc; format: binding; conditions: for Bndg Ratio IGF-1R/IR: higher values indicated higher affinity for IR than IGF-1R
T3 construct: replacing the transmembrane domain and the intracellular domain of IR with constant domains from immunoglobulin Fc or λ subunits; made in house; host or cells: human embryonic kidney 293 cells (Bass et al.)
T3 sequence (P06213 28-758 limits assumed, stated change not applied): as the sequence (P06213 28-758 limits assumed) above
T3 sequence (P06213 763-956 limits assumed, stated change not applied): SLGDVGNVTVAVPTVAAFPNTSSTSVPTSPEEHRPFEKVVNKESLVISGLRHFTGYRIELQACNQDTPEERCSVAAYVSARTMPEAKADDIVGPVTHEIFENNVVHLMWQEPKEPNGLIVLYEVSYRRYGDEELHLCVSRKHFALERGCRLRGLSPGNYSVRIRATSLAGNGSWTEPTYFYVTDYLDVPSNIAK

IGF-1R [4] = biological target: T4, IGF-1R (Homo sapiens, UniProt P08069); assay: TR-FRET competition with biotinylated-20E2 for rhIGF-1R; conditions: TR-FRET (rhIGF-1R, b-20E2) versus FP (sIR-Fc), summary of Table 22
T4 sequence (P08069 31-736 limits assumed): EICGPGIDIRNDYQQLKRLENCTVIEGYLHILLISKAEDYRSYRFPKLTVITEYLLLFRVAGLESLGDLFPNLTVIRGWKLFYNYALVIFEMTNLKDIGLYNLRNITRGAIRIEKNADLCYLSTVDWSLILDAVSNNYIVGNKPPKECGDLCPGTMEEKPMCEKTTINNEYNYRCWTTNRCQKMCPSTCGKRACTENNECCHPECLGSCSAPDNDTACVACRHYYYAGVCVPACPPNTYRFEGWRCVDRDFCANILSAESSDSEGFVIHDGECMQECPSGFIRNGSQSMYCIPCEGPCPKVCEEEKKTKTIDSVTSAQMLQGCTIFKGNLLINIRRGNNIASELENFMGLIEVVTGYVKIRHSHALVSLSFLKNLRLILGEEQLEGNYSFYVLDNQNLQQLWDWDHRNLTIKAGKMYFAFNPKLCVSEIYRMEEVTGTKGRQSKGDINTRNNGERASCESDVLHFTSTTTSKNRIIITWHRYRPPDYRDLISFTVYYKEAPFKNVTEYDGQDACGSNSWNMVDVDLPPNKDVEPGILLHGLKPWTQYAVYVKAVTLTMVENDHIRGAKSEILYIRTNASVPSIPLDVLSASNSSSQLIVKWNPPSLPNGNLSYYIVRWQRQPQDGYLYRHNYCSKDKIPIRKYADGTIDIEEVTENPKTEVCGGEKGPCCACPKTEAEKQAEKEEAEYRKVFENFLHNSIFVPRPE
T4 sequence (P08069 741-935 limits assumed): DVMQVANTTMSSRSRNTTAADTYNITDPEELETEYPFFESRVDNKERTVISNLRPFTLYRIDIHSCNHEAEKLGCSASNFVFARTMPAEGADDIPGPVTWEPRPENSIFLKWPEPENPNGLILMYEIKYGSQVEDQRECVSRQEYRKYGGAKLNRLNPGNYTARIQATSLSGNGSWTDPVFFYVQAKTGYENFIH

[5] = tested on: FDC-P2 cells expressing the IL-3 and human IGF-1R receptors; assay: IGF-1 proliferation assay in FDC-P2 cells, agonist format
[6] = tested on: FDC-P2 cells expressing the IL-3 and human IGF-1R receptors; assay: IGF-1 proliferation assay in FDC-P2 cells, antagonist format; conditions: FDC-P2 cells
IR [7] = biological target: T1, IR; assay: Phage ELISA, binding of phage clones to IR (ratio over background); conditions: ratio of IR divided by ratio of IGF-1R
Target sequence in this assay (P06213 28-758 limits assumed): as the sequence (P06213 28-758 limits assumed) above
Target sequence in this assay (P06213 763-956 limits assumed): as the sequence (P06213 763-956 limits assumed, stated change not applied) above

IGF-1R [8] = biological target: T4, IGF-1R; assay: Phage ELISA, binding of phage clones to IGF-1R (ratio over background); conditions: ratio of IGF-1R divided by ratio of IR
[9] = tested on: free fat cells (adipocytes); assay: Adipocyte / free fat cell (FFC) assay, 3H glucose incorporation into lipid
[10] = MBP-fusion or recombinant peptide as listed
[11] = read-out: nM ED50 Growth, FDC-P2 cells, agonist format
[12] = FFC assay potency grade, 0, + to ++++++, −

GRFYGWFQDAIDQLMPWGFD [RP-3]
IC50 (IR [1]): > 10000 nM

RP6-D8B12 (TFYSCLASLLTGTPQPNRGPWERCRWLEQERAWIWCEIQGSGCRA; not fully specified; cysteine pairing not given here)
MCF-7 Agonist (MCF-7 cells): + | MiaPaCa Agonist (MiaPaCa cells): +

RSEASFHVEFYSWFEEQLRS [RP-2]
IC50 (IR [1]): 1000 nM

MGSLDESFYDWFERQLGEEEGGDHHHHHHPG [RB569]
Kd [2, 10]: 210 nM

MADYKDDDDKGSLDESFYDWFERQLGKKGGSGGSGSLDESFYDWFERQLGKKAAAGAPVPYPDPLEPRPG [RB521]
Kd [2, 10]: 44 nM

CC[C@H](C)[C@H](NC(=O)CN)C(=O)N[C@H](C(=O)N[C@@H](CO)C(=O)N[C@@H](CCC(N)=O)C(=O)N[C@@H](CO)C(=O)N[C@H]1CSSC[C@@H](C(=O)N[C@@H](Cc2c[nH]c3ccccc23)C(=O)O)NC(=O)[C@H](Cc2c[nH]c3ccccc23)NC(=O)[C@H](Cc2c[nH]c3ccccc23)NC(=O)[C@@H]2CCCN2C(=O)[C@H](CC(=O)O)NC(=O)[C@H](CO)NC(=O)[C@H](C(C)C)NC(=O)[C@H](CCC(N)=O)NC(=O)CNC(=O)[C@H](C)NC(=O)[C@H](Cc2ccccc2)NC(=O)[C@H](Cc2c[nH]c3ccccc23)NC(=O)[C@H](CC(=O)O)NC(=O)[C@H](Cc2ccc(O)cc2)NC(=O)[C@H](Cc2ccccc2)NC(=O)[C@H](CO)NC(=O)[C@H](CCC(=O)O)NC(=O)[C@@H]2CCCN2C1=O)[C@@H](C)CC [Peptide G33] (HELM PEPTIDE1{G.I.I.S.Q.S.C.P.E.S.F.Y.D.W.F.A.G.Q.V.S.D.P.W.W.C.W}$PEPTIDE1,PEPTIDE1,7:R3-25:R3$$$V2.0; N-terminus and C-terminus assumed; bridges inferred)
potency / affinity at IR, in words ([3]; FP with FITC-RP9, summary of Table 22): less potent | Bndg Ratio IGF-1R/IR [3]: 1.3 | IGF-1R agonist activity, proliferation of MCF-7 and MiaPaCa cells, in words (MCF-7 cells; MCF-7 and MiaPaCa cells (Tables 27-28)): IGF-1R agonist activity | MCF-7 Agonist (MCF-7 cells): + | MiaPaCa Agonist (MiaPaCa cells): + | binding to IGF-1R compared with IR, in words (IGF-1R [4]): comparable binding to IGF-1R and IR | FDC-P2 Agonist ([5]; FDC-P2 cell proliferation, agonist effect): + | agonist activity at IGF-1R, in words ([5]; FDC-P2 cells): IGF-1R agonist activity | EC50 ([5]; read-out: ED50, agonist activity at IGF-1R, FDC-P2 cells): ~10000 nM | antagonist activity at IGF-1R, in words [6]: no antagonist activity

CC(C)C[C@H](NC(=O)CNC(=O)[C@H](CCCNC(=N)N)NC(=O)CNC(=O)[C@H](CCC(=O)O)NC(=O)[C@@H](N)C(C)C)C(=O)N[C@@H](Cc1ccccc1)C(=O)N[C@@H](Cc1ccc(O)cc1)C(=O)N[C@@H](CC(=O)O)C(=O)N[C@@H](CC(C)C)C(=O)N[C@@H](CC(C)C)C(=O)N[C@@H](CCCNC(=N)N)C(=O)N[C@@H](CCC(N)=O)C(=O)N[C@@H](CC(C)C)C(=O)N[C@@H](CC(C)C)C(=O)N[C@@H](C)C(=O)N[C@@H](CCCNC(=N)N)C(=O)N[C@@H](CCCNC(=N)N)C(=O)N[C@@H](CCC(N)=O)C(=O)N[C@@H](CC(N)=O)C(=O)NCC(=O)O [20E2B-3-C6-IGFR]
Comparisons IR/IGF-1R (IR [7]): 0.1 | Comparisons IGF-1R/IR (IGF-1R [8]): 14.8 | IC50 (IR [1]): > 5000 nM

FHENFYDWFVQRVSKK [H2C (D117)]
Bndg Ratio IGF-1R/IR [3]: 9

MQNDDGSLDESFYDWFERQLGEEEGGDHHHHHHPG [RB570]
Kd [2, 10]: 25 nM

QSFYDYIEELLGGEWKK [Peptide 20E2-PD1-IR]
IC50 (IR [1]): > 5000 nM

GSLDESFYDWFERQL [Peptide S395]
Kd ([2]; Table 6): 91 nM | FFC ([9]; Table 6, free fat cell assay): +

WLDQERAWLWCEISGRGCLSGGSGGSGGSGGSGSLDESFYDWFERQLGKK (disulfide 11-18 (inferred)) [D815-RP9 12 aa]
Max Action ([5]; FDC-P2 cells, agonist format): 100% | EC50 [5, 11]: 10000 nM

DYKDDDDKVRVDWLQRNANFYAWFVAELGGGSGGSGGSGGSGRVDWLQRNANFYDWFVAELGAAAGAPVPYPDPLEPRAA [RB509]
Kd [2, 10]: 55 nM

GSRPVFHEQFYEWFVDQLGL [RP-1]
IC50 (IR [1]): 1000 nM

WLDQERAWLWCEISGRGCLSGGSGGSGSLDESFYDWFERQLGKK (disulfide 11-18 (inferred)) [D815-RP9 6 aa]
Max Action ([5]; FDC-P2 cells, agonist format): >50% | EC50 [5, 11]: 50 nM

PPWGARFYDAIEQLVFDNL [RP-4]
IC50 (IR [1]): 5000 nM

CC(C)[C@H](NC(=O)[C@H](Cc1ccccc1)NC(=O)[C@H](Cc1c[nH]c2ccccc12)NC(=O)[C@H](CC(=O)O)NC(=O)[C@H](Cc1ccc(O)cc1)NC(=O)[C@H](Cc1ccccc1)NC(=O)[C@H](CC(N)=O)NC(=O)[C@H](CCC(=O)O)NC(=O)[C@H](Cc1c[nH]cn1)NC(=O)[C@H](Cc1ccccc1)NC(=O)CNC(=O)CNC(=O)[C@@H](N)CSSC[C@H](N)C(=O)NCC(=O)NCC(=O)N[C@@H](Cc1ccccc1)C(=O)N[C@@H](Cc1c[nH]cn1)C(=O)N[C@@H](CCC(=O)O)C(=O)N[C@@H](CC(N)=O)C(=O)N[C@@H](Cc1ccccc1)C(=O)N[C@@H](Cc1ccc(O)cc1)C(=O)N[C@@H](CC(=O)O)C(=O)N[C@@H](Cc1c[nH]c2ccccc12)C(=O)N[C@@H](Cc1ccccc1)C(=O)N[C@H](C(=O)N[C@@H](CCCNC(=N)N)C(=O)N[C@@H](CCC(N)=O)C(=O)N[C@H](C(=O)N[C@@H](CO)C(=O)N[C@@H](CCCCN)C(=O)N[C@@H](CCCCN)C(=O)O)C(C)C)C(C)C)C(=O)N[C@@H](CCCNC(=N)N)C(=O)N[C@@H](CCC(N)=O)C(=O)N[C@H](C(=O)N[C@@H](CO)C(=O)N[C@@H](CCCCN)C(=O)N[C@@H](CCCCN)C(=O)O)C(C)C [Peptide S228]
FFC [9, 12]: ++

RB596 (MQNDDGSLDESFYDWFERQLGHHHHHHPG)
FF ([9]; fat cell potency, symbols ++ and − not defined in the table): 9.4*10^−8

Insulin-like growth factor 1 [IGF-1, reference compound]
EC50 (MCF-7 cells; MCF-7 cells, serum-free conditions, read-out: ED50, proliferation): 5 nM | EC50 (MiaPaCa cells; MiaPaCa cells, serum-free conditions, read-out: ED50, proliferation): 5 nM

CC(C)[C@H](NC(=O)[C@H](Cc1ccccc1)NC(=O)[C@H](Cc1c[nH]c2ccccc12)NC(=O)[C@H](CC(=O)O)NC(=O)[C@H](Cc1ccc(O)cc1)NC(=O)[C@H](Cc1ccccc1)NC(=O)[C@H](CC(N)=O)NC(=O)[C@H](CCC(=O)O)NC(=O)[C@H](Cc1c[nH]cn1)NC(=O)[C@H](Cc1ccccc1)NC(=O)[C@@H](N)CNC(=O)CON=CCCCCC=NOCC(=O)NC[C@H](N)C(=O)N[C@@H](Cc1ccccc1)C(=O)N[C@@H](Cc1c[nH]cn1)C(=O)N[C@@H](CCC(=O)O)C(=O)N[C@@H](CC(N)=O)C(=O)N[C@@H](Cc1ccccc1)C(=O)N[C@@H](Cc1ccc(O)cc1)C(=O)N[C@@H](CC(=O)O)C(=O)N[C@@H](Cc1c[nH]c2ccccc12)C(=O)N[C@@H](Cc1ccccc1)C(=O)N[C@H](C(=O)N[C@@H](CCCNC(=N)N)C(=O)N[C@@H](CCC(N)=O)C(=O)N[C@H](C(=O)N[C@@H](CO)C(=O)N[C@@H](CCCCN)C(=O)N[C@@H](CCCCN)C(N)=O)C(C)C)C(C)C)C(=O)N[C@@H](CCCNC(=N)N)C(=O)N[C@@H](CCC(N)=O)C(=O)N[C@H](C(=O)N[C@@H](CO)C(=O)N[C@@H](CCCCN)C(=O)N[C@@H](CCCCN)C(N)=O)C(C)C [Peptide S169]
FFC [9, 12]: ++

GSLDESFYDWFER [Peptide S396]
FFC ([9]; Table 6, free fat cell assay): 0 | FFC ([9]; free fat cell assay potency class, Table 7): 0

CC(C)[C@H](NC(=O)[C@H](Cc1ccccc1)NC(=O)[C@H](Cc1c[nH]c2ccccc12)NC(=O)[C@H](CC(=O)O)NC(=O)[C@H](Cc1ccc(O)cc1)NC(=O)[C@H](Cc1ccccc1)NC(=O)[C@H](CC(N)=O)NC(=O)[C@H](CCC(=O)O)NC(=O)[C@H](Cc1c[nH]cn1)NC(=O)[C@@H](N)Cc1ccccc1)C(=O)N[C@@H](CCCNC(=N)N)C(=O)N[C@@H](CCC(N)=O)C(=O)N[C@H](C(=O)N[C@@H](CO)C(=O)N[C@@H](CCCCN)C(=O)N[C@@H](CCCCN)C(=O)NC[C@H](NC(=O)[C@H](CCCCN)NC(=O)[C@H](CCCCN)NC(=O)[C@H](CO)NC(=O)[C@@H](NC(=O)[C@H](CCC(N)=O)NC(=O)[C@H](CCCNC(=N)N)NC(=O)[C@@H](NC(=O)[C@H](Cc1ccccc1)NC(=O)[C@H](Cc1c[nH]c2ccccc12)NC(=O)[C@H](CC(=O)O)NC(=O)[C@H](Cc1ccc(O)cc1)NC(=O)[C@H](Cc1ccccc1)NC(=O)[C@H](CC(N)=O)NC(=O)[C@H](CCC(=O)O)NC(=O)[C@H](Cc1c[nH]cn1)NC(=O)[C@@H](N)Cc1ccccc1)C(C)C)C(C)C)C(=O)O)C(C)C [Peptide S128]
FFC [9, 12]: ++

Source: patent US20070004634A1 (Novo Nordisk A/S, priority 1998, published 2007)
